# Measurements published in ChEMBL document CHEMBL6120969, “Distinctive Immune Signatures Driven by Structural Alterations in Desmuramylpeptide NOD2 Agonists” (J Med Chem, 2024).
# The source made the active and inactive calls. The rule behind the calls is not given here.
# Experiments:
# [1] = Cytotoxicity against human HEK-Blue hNOD2 cells assessed as metabolic activity at 10 uM incubated for 18 hes by MTT assay; assay type: toxicity, cell-based; details: hek-blue hnod2, 10 µM
# PBMC [2] = experiment: Immunomodulatory activity in human PBMC cells assessed as increase in TGF-beta1 level at 2 uM incubated for 18 hrs y flow cytometry analysis; assay type: functional, cell-based
# Outline: (§1)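 Human donor PBMCs were isolated with Ficoll-Paque, seeded at 1 × 10^6 cells/mL (500 μL) in 48-well plates, and exposed to compounds at 2 μM or to 0.1% DMSO vehicle without LPS for 18 h at 37 °C, 5% CO2. Cytokines in the cell-free supernatants were then quantified on a flow cytometer with the LEGENDplex Human Essential Immune Response Panel, read against the kit's recombinant standard curves. Data came from four independent replicates and were analysed by two-way ANOVA with Tukey's test.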
# PBMC [3] = experiment: Immunomodulatory activity in human PBMC cells assessed as increase in LPS-induced IL-10 level at 2 uM incubated for 18 hrs y flow cytometry analysis; assay type: functional, cell-based
# Outline: (§2)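 With LPS at 10 ng/mL present, human donor PBMCs (1 × 10^6 cells/mL, 500 μL, 48-well plates) were incubated for 18 h at 37 °C, 5% CO2 with compounds at 2 μM or with 0.1% DMSO. Supernatant cytokines were then determined with a LEGENDplex multiplex panel read by flow cytometry against kit recombinant standards, and four independent replicates were assessed by two-way ANOVA with Tukey's test.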
# PBMC [4] = experiment: Immunomodulatory activity in human PBMC cells assessed as increase in IFN-gamma level at 2 uM incubated for 18 hrs y flow cytometry analysis; assay type: functional, cell-based; outline: as §1
# PBMC [5] = experiment: Cytotoxicity against human PBMC cells co-cultured with human K562 cells at 10 uM incubated for 4 hrs; assay type: functional, cell-based
# Outline: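 Statistics used one-way ANOVA with Dunnett's test on duplicate wells from three independent biological replicates. In 96-well plates, 4 × 10^5 human PBMCs per well were exposed to compounds at 10 μM for 18 h, with 0.1% DMSO as vehicle, and then to 1 × 10^4 CFSE-stained K562 cells per well (effector:target 40:1) for 4 h at 37 °C, 5% CO2. Killing was determined as the fraction of K562 cells staining for both CFSE and Sytox blue on an Attune NxT flow cytometer.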
# PBMC [6] = experiment: Immunomodulatory activity in human PBMC cells assessed as increase in LPS-induced MCP-1 level at 2 uM incubated for 18 hrs y flow cytometry analysis; assay type: functional, cell-based; outline: as §2
# PBMC [7] = experiment: Immunomodulatory activity in human PBMC cells assessed as increase in IL-1beta level at 2 uM incubated for 18 hrs y flow cytometry analysis; assay type: functional, cell-based; outline: as §1
# PBMC [8] = experiment: Immunomodulatory activity in human PBMC cells assessed as increase in IL-17A level at 2 uM incubated for 18 hrs y flow cytometry analysis; assay type: functional, cell-based; outline: as §1
# PBMC [9] = experiment: Immunomodulatory activity in human PBMC cells assessed as increase in TNF-alpha level at 2 uM incubated for 18 hrs y flow cytometry analysis; assay type: functional, cell-based; outline: as §1
# PBMC [10] = experiment: Immunomodulatory activity in human PBMC cells assessed as increase in LPS-induced IL-6 level at 2 uM incubated for 18 hrs y flow cytometry analysis; assay type: functional, cell-based; outline: as §2
# PBMC [11] = experiment: Immunomodulatory activity in human PBMC cells assessed as increase in IL-10 level at 2 uM incubated for 18 hrs y flow cytometry analysis; assay type: functional, cell-based; outline: as §1
# [12] = Cytotoxicity against human PBMC cells at 10 uM incubated for 4 hrs in presence of MDP; assay type: toxicity, cell-based
# PBMC [13] = experiment: Immunomodulatory activity in human PBMC cells assessed as increase in IP-10 level at 2 uM incubated for 18 hrs y flow cytometry analysis; assay type: functional, cell-based; outline: as §1
# [14] = Cytotoxicity against human PBMC cells at 10 uM incubated for 4 hrs; assay type: toxicity, cell-based
# Outline: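 Human PBMCs alone were exposed to compounds at 10 μM (vehicle 0.1% DMSO) in parallel with a K562 killing assay. They were then stained with Sytox blue dead cell stain and analysed on an Attune NxT flow cytometer with FlowJo. Direct cytotoxicity was read as Sytox blue-positive cells. Duplicates, three independent biological replicates; one-way ANOVA with Dunnett's test.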
# PBMC [15] = experiment: Immunomodulatory activity in human PBMC cells assessed as increase in LPS-induced IFN-gamma level at 2 uM incubated for 18 hrs y flow cytometry analysis; assay type: functional, cell-based
# PBMC [16] = experiment: Immunomodulatory activity in human PBMC cells assessed as increase in IL-2 level at 2 uM incubated for 18 hrs y flow cytometry analysis; assay type: functional, cell-based; outline: as §1
# PBMC [17] = experiment: Immunomodulatory activity in human PBMC cells assessed as increase in MCP-1 level at 2 uM incubated for 18 hrs y flow cytometry analysis; assay type: functional, cell-based; outline: as §1
# PBMC [18] = experiment: Immunomodulatory activity in human PBMC cells assessed as increase in LPS-induced TNF-alpha level at 2 uM incubated for 18 hrs y flow cytometry analysis; assay type: functional, cell-based
# PBMC [19] = experiment: Immunomodulatory activity in human PBMC cells assessed as increase in LPS-induced IL-1beta level at 2 uM incubated for 18 hrs y flow cytometry analysis; assay type: functional, cell-based
# PBMC [20] = experiment: Immunomodulatory activity in human PBMC cells assessed as increase in IL-12p70 level at 2 uM incubated for 18 hrs y flow cytometry analysis; assay type: functional, cell-based; outline: as §1
# PBMC [21] = experiment: Immunomodulatory activity in human PBMC cells assessed as increase in IL-8 level at 2 uM incubated for 18 hrs y flow cytometry analysis; assay type: functional, cell-based; outline: as §1
# PBMC [22] = experiment: Immunomodulatory activity in human PBMC cells assessed as increase in IL-6 level at 2 uM incubated for 18 hrs y flow cytometry analysis; assay type: functional, cell-based; outline: as §1
# PBMC [23] = experiment: Immunomodulatory activity in human PBMC cells assessed as increase in IL-4 level at 2 uM incubated for 18 hrs y flow cytometry analysis; assay type: functional, cell-based; outline: as §1
# PBMC [24] = experiment: Immunomodulatory activity in human PBMC cells assessed as increase in LPS-induced IL-12p70 level at 2 uM incubated for 18 hrs y flow cytometry analysis; assay type: functional, cell-based
# PBMC [25] = experiment: Immunomodulatory activity in human PBMC cells assessed as increase in LPS-induced IP-10 level at 2 uM incubated for 18 hrs y flow cytometry analysis; assay type: functional, cell-based; outline: as §2
structure (smiles),measurement,setting,value
CCOC(=O)[C@@H](CCC(=O)NCCCCN)NC(=O)[C@@H](NC(=O)CNC(=O)/C=C/c1ccc(O)c(OC)c1)C(C)C,Activity,[1],Non-toxic
CCOC(=O)CC[C@@H](NC(=O)[C@@H](NC(=O)CNC(=O)/C=C/c1ccc(OC(=O)CCCC2CCCCC2)c(OC)c1)C(C)C)C(=O)OCC,Activity,[1],Non-toxic
CCCCCCCCCCCCCC(=O)Oc1ccc(/C=C/C(=O)NCC(=O)N[C@H](C(=O)N[C@H](CCC(=O)OCC)C(=O)OCC)C(C)C)cc1OC,Activity,[1],Non-toxic
CCCCCC(CCCCC)C(=O)Oc1ccc(/C=C/C(=O)NCC(=O)N[C@H](C(=O)N[C@H](CCC(=O)OCC)C(=O)OCC)C(C)C)cc1OC,Activity,[1],Non-toxic
CCCCCCC(CC)C(=O)Oc1ccc(/C=C/C(=O)NCC(=O)N[C@H](C(=O)N[C@H](CCC(=O)OCC)C(=O)OCC)C(C)C)cc1OC (stereo partly specified),Activity,[1],Non-toxic
CCOC(=O)[C@@H](CCC(=O)NCCCNCCCCNCCCN)NC(=O)[C@@H](NC(=O)CNC(=O)/C=C/c1ccc(O)c(OC)c1)C(C)C,Activity,PBMC [2],Active
same,Activity,PBMC [3],Active
same,Activity,PBMC [4],Active
same,Activity,PBMC [5],inactive
same,Activity,PBMC [6],Active
same,Activity,PBMC [7],Active
same,Activity,PBMC [8],Active
same,Activity,PBMC [9],Active
same,Activity,PBMC [10],Active
same,Activity,PBMC [11],Active
same,Activity,[1],Non-toxic
same,Activity,[12],Non-toxic
same,Activity,PBMC [13],Active
same,Activity,[14],Non-toxic
same,Activity,PBMC [15],Active
same,Activity,PBMC [16],Active
same,Activity,PBMC [17],Active
same,Activity,PBMC [18],Active
same,Activity,PBMC [19],Active
same,Activity,PBMC [20],Active
same,Activity,PBMC [21],Active
same,Activity,PBMC [22],Active
same,Activity,PBMC [23],Active
same,Activity,PBMC [24],Active
same,Activity,PBMC [25],Active
CCCCCCCC/C=C\CCCCCCCC(=O)Oc1ccc(/C=C/C(=O)NCC(=O)N[C@H](C(=O)N[C@H](CCC(=O)OCC)C(=O)OCC)C(C)C)cc1OC,Activity,[1],Non-toxic
CCOC(=O)CC[C@@H](NC(=O)[C@@H](NC(=O)CNC(=O)/C=C/c1ccc(OC(=O)CCCCCCCCCCCCCO)c(OC)c1)C(C)C)C(=O)OCC,Activity,[1],Non-toxic
CCCCCC(=O)Oc1ccc(/C=C/C(=O)NCC(=O)N[C@H](C(=O)N[C@H](CCC(=O)OCC)C(=O)OCC)C(C)C)cc1OC,Activity,[1],Non-toxic
CCCCCCCCCCCC(=O)Oc1ccc(/C=C/C(=O)NCC(=O)N[C@H](C(=O)N[C@H](CCC(=O)OCC)C(=O)OCC)C(C)C)cc1OC,Activity,PBMC [2],Active
same,Activity,PBMC [3],Active
same,Activity,PBMC [4],Active
same,Activity,PBMC [5],inactive
same,Activity,PBMC [6],Active
same,Activity,PBMC [7],Active
same,Activity,PBMC [8],Active
same,Activity,PBMC [9],Active
same,Activity,PBMC [10],Active
same,Activity,PBMC [11],Active
same,Activity,PBMC [13],Active
same,Activity,[14],Non-toxic
same,Activity,PBMC [15],Active
same,Activity,PBMC [16],Active
same,Activity,PBMC [17],Active
same,Activity,PBMC [18],Active
same,Activity,PBMC [19],Active
same,Activity,PBMC [20],Active
same,Activity,PBMC [21],Active
same,Activity,PBMC [22],Active
same,Activity,PBMC [23],Active
same,Activity,PBMC [24],Active
same,Activity,PBMC [25],Active
CCCCCC(C)C(=O)Oc1ccc(/C=C/C(=O)NCC(=O)N[C@H](C(=O)N[C@H](CCC(=O)OCC)C(=O)OCC)C(C)C)cc1OC (stereo partly specified),Activity,[1],Non-toxic
CCCCCCCCCCCCCCCCCC(=O)Oc1ccc(/C=C/C(=O)NCC(=O)N[C@H](C(=O)N[C@H](CCC(=O)OCC)C(=O)OCC)C(C)C)cc1OC,Activity,[1],Non-toxic
CCCCCCCC(=O)Oc1ccc(/C=C/C(=O)NCC(=O)N[C@H](C(=O)N[C@H](CCC(=O)OCC)C(=O)OCC)C(C)C)cc1OC,Activity,[1],Non-toxic
CCCCCC(CCC)C(=O)Oc1ccc(/C=C/C(=O)NCC(=O)N[C@H](C(=O)N[C@H](CCC(=O)OCC)C(=O)OCC)C(C)C)cc1OC (stereo partly specified),Activity,[1],Non-toxic
CC/C=C\C/C=C\C/C=C\C/C=C\C/C=C\C/C=C\CCC(=O)Oc1ccc(/C=C/C(=O)NCC(=O)N[C@H](C(=O)N[C@H](CCC(=O)OCC)C(=O)OCC)C(C)C)cc1OC,Activity,[1],Non-toxic
CC/C=C\C/C=C\C/C=C\CCCCCCCC(=O)Oc1ccc(/C=C/C(=O)NCC(=O)N[C@H](C(=O)N[C@H](CCC(=O)OCC)C(=O)OCC)C(C)C)cc1OC,Activity,[1],Non-toxic
CCOC(=O)[C@@H](CCC(=O)OCCN1CCOCC1)NC(=O)[C@@H](NC(=O)CNC(=O)/C=C/c1ccc(O)c(OC)c1)C(C)C,Activity,[1],Non-toxic
CCOC(=O)CC[C@@H](NC(=O)[C@@H](NC(=O)CNC(=O)/C=C/c1cc(OC)c(O)c(OC)c1)C(C)C)C(=O)OCC,Activity,[1],Non-toxic
CCOC(=O)[C@@H](CCC(=O)NCCCNCCCCN)NC(=O)[C@@H](NC(=O)CNC(=O)/C=C/c1ccc(O)c(OC)c1)C(C)C,Activity,[1],Non-toxic
CCCCCCCCCCCCCCCC(=O)Oc1ccc(/C=C/C(=O)NCC(=O)N[C@H](C(=O)N[C@H](CCC(=O)OCC)C(=O)OCC)C(C)C)cc1OC,Activity,[1],Non-toxic
CCCCC/C=C\C/C=C\CCCCCCCC(=O)Oc1ccc(/C=C/C(=O)NCC(=O)N[C@H](C(=O)N[C@H](CCC(=O)OCC)C(=O)OCC)C(C)C)cc1OC,Activity,[1],Non-toxic
CCCCC/C=C\C/C=C\C/C=C\CCCCC(=O)Oc1ccc(/C=C/C(=O)NCC(=O)N[C@H](C(=O)N[C@H](CCC(=O)OCC)C(=O)OCC)C(C)C)cc1OC,Activity,[1],Non-toxic
CCCCC(CC)C(=O)Oc1ccc(/C=C/C(=O)NCC(=O)N[C@H](C(=O)N[C@H](CCC(=O)OCC)C(=O)OCC)C(C)C)cc1OC (stereo partly specified),Activity,[1],Non-toxic
CCCCCCCCCC(=O)Oc1ccc(/C=C/C(=O)NCC(=O)N[C@H](C(=O)N[C@H](CCC(=O)OCC)C(=O)OCC)C(C)C)cc1OC,Activity,[1],Non-toxic
CCCCC(CCCC)C(=O)Oc1ccc(/C=C/C(=O)NCC(=O)N[C@H](C(=O)N[C@H](CCC(=O)OCC)C(=O)OCC)C(C)C)cc1OC,Activity,[1],Non-toxic
